{"source": "patent US9481670B2", "about": "“Triazine compounds” (Sphaera Pharma PTE. Ltd., priority 2011, dated 2016)", "molecular_target": "T1, PI3K alpha (Homo sapiens, UniProt P42336)", "T1 construct": "purchased Millipore Upstate", "T1 sequence (P42336 whole entry)": "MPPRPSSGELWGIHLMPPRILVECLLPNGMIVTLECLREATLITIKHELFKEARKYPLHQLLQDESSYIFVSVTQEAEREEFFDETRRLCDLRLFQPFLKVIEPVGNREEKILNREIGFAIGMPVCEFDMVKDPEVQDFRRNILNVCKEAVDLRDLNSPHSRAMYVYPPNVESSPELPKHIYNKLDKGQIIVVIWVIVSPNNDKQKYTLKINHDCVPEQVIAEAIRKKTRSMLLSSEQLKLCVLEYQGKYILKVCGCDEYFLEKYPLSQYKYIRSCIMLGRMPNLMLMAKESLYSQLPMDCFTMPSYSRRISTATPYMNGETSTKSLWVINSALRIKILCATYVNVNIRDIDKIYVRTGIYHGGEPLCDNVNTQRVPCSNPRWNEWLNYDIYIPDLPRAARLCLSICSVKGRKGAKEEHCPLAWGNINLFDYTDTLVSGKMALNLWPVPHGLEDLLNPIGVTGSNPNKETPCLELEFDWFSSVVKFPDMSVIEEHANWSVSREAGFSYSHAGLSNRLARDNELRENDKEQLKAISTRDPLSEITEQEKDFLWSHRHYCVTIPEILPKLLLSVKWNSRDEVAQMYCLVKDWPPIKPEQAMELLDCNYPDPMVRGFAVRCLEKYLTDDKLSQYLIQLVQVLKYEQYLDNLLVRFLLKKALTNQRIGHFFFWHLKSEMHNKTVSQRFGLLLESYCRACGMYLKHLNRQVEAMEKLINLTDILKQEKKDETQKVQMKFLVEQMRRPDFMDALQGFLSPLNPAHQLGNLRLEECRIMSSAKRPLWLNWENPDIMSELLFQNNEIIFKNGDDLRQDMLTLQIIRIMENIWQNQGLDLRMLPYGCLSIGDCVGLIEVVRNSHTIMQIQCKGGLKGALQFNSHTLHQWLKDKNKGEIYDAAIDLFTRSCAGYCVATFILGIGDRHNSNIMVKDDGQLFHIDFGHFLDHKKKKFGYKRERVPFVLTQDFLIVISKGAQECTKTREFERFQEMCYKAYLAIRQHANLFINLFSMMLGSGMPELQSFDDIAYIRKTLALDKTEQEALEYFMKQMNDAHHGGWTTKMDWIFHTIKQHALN", "T1 sequence (P27986 whole entry partner)": "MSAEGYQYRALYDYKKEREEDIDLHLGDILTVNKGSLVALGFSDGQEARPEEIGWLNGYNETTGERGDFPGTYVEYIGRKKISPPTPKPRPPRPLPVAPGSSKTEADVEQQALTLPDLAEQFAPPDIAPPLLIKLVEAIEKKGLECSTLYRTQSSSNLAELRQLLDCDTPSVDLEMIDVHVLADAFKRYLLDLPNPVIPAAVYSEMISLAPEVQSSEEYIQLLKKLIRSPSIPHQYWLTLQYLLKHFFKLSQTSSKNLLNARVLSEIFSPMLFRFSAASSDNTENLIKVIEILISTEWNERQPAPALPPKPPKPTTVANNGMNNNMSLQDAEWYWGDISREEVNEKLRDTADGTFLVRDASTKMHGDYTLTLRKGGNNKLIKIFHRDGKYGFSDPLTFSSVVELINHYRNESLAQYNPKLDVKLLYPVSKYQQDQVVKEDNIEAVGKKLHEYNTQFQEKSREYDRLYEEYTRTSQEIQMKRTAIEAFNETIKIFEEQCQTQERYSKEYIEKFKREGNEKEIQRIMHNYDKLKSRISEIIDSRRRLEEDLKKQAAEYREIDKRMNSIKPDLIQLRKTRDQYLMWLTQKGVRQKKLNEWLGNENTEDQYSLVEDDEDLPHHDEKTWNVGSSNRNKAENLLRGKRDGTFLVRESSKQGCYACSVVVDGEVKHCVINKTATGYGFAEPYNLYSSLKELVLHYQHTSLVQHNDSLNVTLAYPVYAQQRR", "assay": "P110 Alpha TR-FRET Assay (PI3K alpha kinase assay, HTRF Transcreener ADP Assay)", "format": "biochemical", "details": "PI3K (WT)", "procedure,_shortened": "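Enzyme (50 ng) and compound were preincubated 20 min in HEPES pH 7.5 buffer containing MgCl2, DTT and vanadate before 10 μM ATP plus 5 μM PIP2 substrate was added for 20 min. ADP produced was quantified by TR-FRET (ADP-d2, anti-ADP cryptate, 1 h).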", "data": [{"smiles": "NC(=O)CNc1nc(-c2cccc(O)c2)nc(N2CCOCC2)n1", "note": "[Compound 1181, 2-((4-(3-hydroxyphenyl)-6-morpholino-1,3,5-triazin-2-yl)amino)acetamide]", "values": [{"measurement": "IC50", "result": "< 5", "unit": "µM"}]}, {"smiles": "NC(=O)c1cccn1-c1nc(-c2cccc3[nH]ncc23)nc(N2CCOCC2)n1", "note": "[Compound 1182, 1-8-[4-1-(1H-indazol-4-yl)-6-5-(morpholin-4-yl)-1,3,5-triazin-2-yl]-1H-pyrrole-2-carboxamide]", "values": [{"measurement": "IC50", "result": "< 5", "unit": "µM"}]}, {"smiles": "COc1cccc(-c2nc(NCC(=O)O)nc(N3CCOCC3)n2)c1", "note": "[Compound 1183, 2-((4-(3-methoxyphenyl)-6-morpholino-1,3,5-triazin-2-yl)amino)acetic acid]", "values": [{"measurement": "IC50", "result": "> 5", "unit": "µM"}]}, {"smiles": "O=C(O)CNc1nc(-c2cccc(NO)c2)nc(N2CCOCC2)n1", "note": "[Compound 1184, 2-((4-(3-(hydroxyamino)phenyl)-6-morpholino-1,3,5-triazin-2-yl)amino)acetic acid]", "values": [{"measurement": "IC50", "result": "> 5", "unit": "µM"}]}, {"smiles": "CN(C)C(=O)CNc1nc(-c2ccc(N)cc2)nc(N2CCOCC2)n1", "note": "[Compound 1185, 2-((4-(4-aminophenyl)-6-morpholino-1,3,5-triazin-2-yl)amino)-N,N-dimethylacetamide]", "values": [{"measurement": "IC50", "result": "> 5", "unit": "µM"}]}, {"smiles": "Cc1c(Nc2nc(-c3cccc4[nH]ncc34)nc(N3CCOCC3)n2)cccc1C(N)=O", "note": "[Compound 1186, 3-((4-(1H-indazol-4-yl)-6-morpholino-1,3,5-triazin-2-yl)amino)-2-methylbenzamide]", "values": [{"measurement": "IC50", "result": "< 5", "unit": "µM"}]}, {"smiles": "CC(Nc1nc(-c2cccc(O)c2)nc(N2CCOCC2)n1)C(=O)O", "note": "(stereo not drawn) [Compound 1187, 2-((4-(3-hydroxyphenyl)-6-morpholino-1,3,5-triazin-2-yl)amino)propanoic acid]", "values": [{"measurement": "IC50", "result": "< 5", "unit": "µM"}]}, {"smiles": "CC(C)(Nc1nc(-c2cccc(O)c2)nc(N2CCOCC2)n1)C(=O)O", "note": "[Compound 1188, 2-((4-(3-hydroxyphenyl)-6-morpholino-1,3,5-triazin-2-yl)amino)-2-methylpropanoic acid]", "values": [{"measurement": "IC50", "result": "< 5", "unit": "µM"}]}, {"smiles": "CN(C)C(=O)c1cccc(Nc2nc(-c3cccc4[nH]ncc34)nc(N3CCOCC3)n2)c1", "note": "[Compound 1190, 3-((4-(1H-indazol-4-yl)-6-morpholino-1,3,5-triazin-2-yl)amino)-N,N-dimethylbenzamide]", "values": [{"measurement": "IC50", "result": "< 5", "unit": "µM"}]}, {"smiles": "CS(=O)(=O)N1CCN(C(=O)CCNc2nc(-c3cccc4[nH]ncc34)nc(N3CCOCC3)n2)CC1", "note": "[Compound 1191, 3-((4-(1H-indazol-4-yl)-6-morpholino-1,3,5-triazin-2-yl)amino)-1-(4-(methylsulfonyl)piperazin-1-yl)propan-1-one]", "values": [{"measurement": "IC50", "result": "< 5", "unit": "µM"}]}, {"smiles": "CN(CC(=O)O)c1nc(-c2cccc(O)c2)nc(N2CCOCC2)n1", "note": "[Compound 1192, 2-((4-(3-hydroxyphenyl)-6-morpholino-1,3,5-triazin-2-yl)(methyl)amino)acetic acid]", "values": [{"measurement": "IC50", "result": "< 5", "unit": "µM"}]}, {"smiles": "NC(=O)Cc1ccccc1Nc1nc(-c2cccc3[nH]ncc23)nc(N2CCOCC2)n1", "note": "[Compound 1194, 2-(2-((4-(1H-indazol-4-yl)-6-morpholino-1,3,5-triazin-2-yl)amino)phenyl)acetamide]", "values": [{"measurement": "IC50", "result": "< 5", "unit": "µM"}]}, {"smiles": "NC(=O)Cc1cccc(Nc2nc(-c3cccc4[nH]ncc34)nc(N3CCOCC3)n2)c1", "note": "[Compound 1195, 2-(3-((4-(1H-indazol-4-yl)-6-morpholino-1,3,5-triazin-2-yl)amino)phenyl)acetamide]", "values": [{"measurement": "IC50", "result": "< 5", "unit": "µM"}]}, {"smiles": "O=C1NCC2CN(c3nc(-c4cccc5[nH]ncc45)nc(N4CCOCC4)n3)CCC12", "note": "(stereo not drawn) [Compound 1196, 5-8-[4-1-(1H-indazol-4-yl)-6-5-(morpholin-4-yl)-1,3,5-triazin-2-yl]-octahydro-1H-pyrrolo[3,4-c]pyridin-1-one]", "values": [{"measurement": "IC50", "result": "< 5", "unit": "µM"}]}, {"smiles": "COC(=O)CNc1nc(-c2cccc(N)c2)nc(N2CCOCC2)n1", "note": "[Compound 1197, methyl 2-((4-(3-aminophenyl)-6-morpholino-1,3,5-triazin-2-yl)amino)acetate]", "values": [{"measurement": "IC50", "result": "< 5", "unit": "µM"}]}, {"smiles": "NC(=O)c1ccccc1Nc1nc(-c2cccc3[nH]ncc23)nc(N2CCOCC2)n1", "note": "[Compound 1198, 2-((4-(1H-indazol-4-yl)-6-morpholino-1,3,5-triazin-2-yl)amino)benzamide]", "values": [{"measurement": "IC50", "result": "> 5", "unit": "µM"}]}, {"smiles": "Nc1cccc(-c2nc(NCC(=O)O)nc(N3CCOCC3)n2)c1", "note": "[Compound 1199, 2-((4-(3-aminophenyl)-6-morpholino-1,3,5-triazin-2-yl)amino)acetic acid]", "values": [{"measurement": "IC50", "result": "> 5", "unit": "µM"}]}, {"smiles": "CN(c1cccc(C(N)=O)c1)c1nc(-c2cccc3[nH]ncc23)nc(N2CCOCC2)n1", "note": "[Compound 1200, 3-((4-(1H-indazol-4-yl)-6-morpholino-1,3,5-triazin-2-yl)(methyl)amino)benzamide]", "values": [{"measurement": "IC50", "result": "< 5", "unit": "µM"}]}, {"smiles": "NC(=O)c1cccc(Nc2nc(-c3cccc4[nH]ncc34)nc(N3CCOCC3)n2)c1", "note": "[Compound 1201, 3-((4-(1H-indazol-4-yl)-6-morpholino-1,3,5-triazin-2-yl)amino)benzamide]", "values": [{"measurement": "IC50", "result": "< 5", "unit": "µM"}]}, {"smiles": "O=C(O)c1cccc(Nc2nc(-c3cccc4[nH]ncc34)nc(N3CCOCC3)n2)c1", "note": "[Compound 1202, 3-((4-(1H-indazol-4-yl)-6-morpholino-1,3,5-triazin-2-yl)amino)benzoic acid]", "values": [{"measurement": "IC50", "result": "< 5", "unit": "µM"}]}, {"smiles": "O=C(O)CNc1nc(-c2ccccc2)nc(N2CCOCC2)n1", "note": "[Compound 1203, 2-((4-morpholino-6-phenyl-1,3,5-triazin-2-yl)amino)acetic acid]", "values": [{"measurement": "IC50", "result": "> 5", "unit": "µM"}]}, {"smiles": "CN(C)C(=O)c1ccc(Nc2nc(-c3cccc4[nH]ncc34)nc(N3CCOCC3)n2)cc1", "note": "[Compound 1204, 4-((4-(1H-indazol-4-yl)-6-morpholino-1,3,5-triazin-2-yl)amino)-N,N-dimethylbenzamide]", "values": [{"measurement": "IC50", "result": "< 5", "unit": "µM"}]}, {"smiles": "c1cc(Nc2nc(-c3cccc4[nH]ncc34)nc(N3CCOCC3)n2)c2cn[nH]c2c1", "note": "[Compound 1205, N-(4-(1H-indazol-4-yl)-6-morpholino-1,3,5-triazin-2-yl)-1H-indazol-4-amine]", "values": [{"measurement": "IC50", "result": "< 5", "unit": "µM"}]}, {"smiles": "O=C1CCN(c2nc(-c3cccc4[nH]ncc34)nc(N3CCOCC3)n2)CCN1", "note": "[Compound 1206, 1-21-[4-1-(1H-indazol-4-yl)-6-5-(morpholin-4-yl)-1,3,5-triazin-2-yl]-1,4-diazepan-5-one]", "values": [{"measurement": "IC50", "result": "< 5", "unit": "µM"}]}, {"smiles": "COC(=O)C1CCN(c2nc(-c3cccc4[nH]ncc34)nc(N3CCOCC3)n2)C1", "note": "(stereo not drawn) [Compound 1207, methyl 1-12-[4-1-(1H-indazol-4-yl)-6-5-(morpholin-4-yl)-1,3,5-triazin-2-yl]pyrrolidine-3-carboxylate]", "values": [{"measurement": "IC50", "result": "< 5", "unit": "µM"}]}, {"smiles": "ON=C1CCN(c2nc(-c3cccc4[nH]ncc34)nc(N3CCOCC3)n2)CC1", "note": "[Compound 1208, N-{1-8-[4-1-(1H-indazol-4-yl)-6-5-(morpholin-4-yl)-1,3,5-triazin-2-yl]piperidin-4-ylidene}hydroxylamine]", "values": [{"measurement": "IC50", "result": "< 5", "unit": "µM"}]}, {"smiles": "CN(C)C(=O)C(Cc1ccccc1)Nc1nc(-c2cccc3[nH]ncc23)nc(N2CCOCC2)n1", "note": "(stereo not drawn) [Compound 1209, 2-((4-(1H-indazol-4-yl)-6-morpholino-1,3,5-triazin-2-yl)amino)-N,N-dimethyl-3-phenylpropanamide]", "values": [{"measurement": "IC50", "result": "< 5", "unit": "µM"}]}, {"smiles": "CN(C)C(=O)C(CCS(C)(=O)=O)Nc1nc(-c2cccc3[nH]ncc23)nc(N2CCOCC2)n1", "note": "(stereo not drawn) [Compound 1210, 2-((4-(1H-indazol-4-yl)-6-morpholino-1,3,5-triazin-2-yl)amino)-N,N-dimethyl-4-(methylsulfonyl)butanamide]", "values": [{"measurement": "IC50", "result": "< 5", "unit": "µM"}]}, {"smiles": "CS(=O)(=O)N1CCN(c2nc(-c3cccc4[nH]ncc34)nc(N3CCOCC3)n2)CC1", "note": "[Compound 1211, 4-7-[4-3-(4-16-methanesulfonylpiperazin-1-yl)-6-5-(morpholin-4-yl)-1,3,5-triazin-2-yl]-1H-indazole]", "values": [{"measurement": "IC50", "result": "< 5", "unit": "µM"}]}, {"smiles": "Oc1nc(-c2cccc3[nH]ncc23)nc(N2CCOCC2)n1", "note": "[Compound 1212, 4-1-(1H-indazol-4-yl)-6-5-(morpholin-4-yl)-1,3,5-triazin-2-ol]", "values": [{"measurement": "IC50", "result": "< 5", "unit": "µM"}]}, {"smiles": "c1cc(-c2nc(N3CCCNCC3)nc(N3CCOCC3)n2)c2cn[nH]c2c1", "note": "[Compound 1213, 4-12-[4-3-(1,4-diazepan-1-yl)-6-5-(morpholin-4-yl)-1,3,5-triazin-2-yl]-1H-indazole]", "values": [{"measurement": "IC50", "result": "< 5", "unit": "µM"}]}, {"smiles": "CN(C)C(=O)[C@H]1CC[C@H](Nc2nc(-c3cccc4[nH]ncc34)nc(N3CCOCC3)n2)CC1", "note": "[Compound 1214, (1r,4r)-4-((4-(1H-indazol-4-yl)-6-morpholino-1,3,5-triazin-2-yl)amino)-N,N-dimethylcyclohexanecarboxamide]", "values": [{"measurement": "IC50", "result": "< 5", "unit": "µM"}]}, {"smiles": "CNC(=O)[C@H]1CC[C@@H](Nc2nc(-c3cccc4[nH]ncc34)nc(N3CCOCC3)n2)CC1", "note": "[Compound 1215, 4-((4-(1H-indazol-4-yl)-6-morpholino-1,3,5-triazin-2-yl)amino)-N-methylcyclohexanecarboxamide]", "values": [{"measurement": "IC50", "result": "< 5", "unit": "µM"}]}, {"smiles": "CN(C)C(=O)[C@H]1CC[C@@H](Nc2nc(-c3cccc4[nH]ncc34)nc(N3CCOCC3)n2)CC1", "note": "[Compound 1216, 4-((4-(1H-indazol-4-yl)-6-morpholino-1,3,5-triazin-2-yl)amino)-N,N-dimethylcyclohexanecarboxamide]", "values": [{"measurement": "IC50", "result": "< 5", "unit": "µM"}]}, {"smiles": "CN(C)C(=O)[C@H]1CCCN1c1nc(-c2cccc3[nH]ncc23)nc(N2CCOCC2)n1", "note": "[Compound 1217, (2R)-1-7-[4-1-(1H-indazol-4-yl)-6-5-(morpholin-4-yl)-1,3,5-triazin-2-yl]-N,N-dimethylpyrrolidine-2-carboxamide]", "values": [{"measurement": "IC50", "result": "< 5", "unit": "µM"}]}, {"smiles": "CNC(=O)N1CCN(c2nc(-c3cccc4[nH]ncc34)nc(N3CCOCC3)n2)CC1", "note": "[Compound 1218, 4-7-[4-1-(1H-indazol-4-yl)-6-5-(morpholin-4-yl)-1,3,5-triazin-2-yl]-N-methylpiperazine-1-carboxamide]", "values": [{"measurement": "IC50", "result": "< 5", "unit": "µM"}]}, {"smiles": "c1ccc(Nc2nc(-c3cccc4[nH]ncc34)nc(N3CCOCC3)n2)cc1", "note": "[Compound 1219, 4-(1H-indazol-4-yl)-6-morpholino-N-phenyl-1,3,5-triazin-2-amine]", "values": [{"measurement": "IC50", "result": "< 5", "unit": "µM"}]}, {"smiles": "OC1CCN(c2nc(-c3cccc4[nH]ncc34)nc(N3CCOCC3)n2)CC1", "note": "[Compound 1220, 1-8-[4-1-(1H-indazol-4-yl)-6-5-(morpholin-4-yl)-1,3,5-triazin-2-yl]piperidin-4-ol]", "values": [{"measurement": "IC50", "result": "< 5", "unit": "µM"}]}, {"smiles": "O=C1CCN(c2nc(-c3cccc4[nH]ncc34)nc(N3CCOCC3)n2)CC1", "note": "[Compound 1221, 1-8-[4-1-(1H-indazol-4-yl)-6-5-(morpholin-4-yl)-1,3,5-triazin-2-yl]piperidin-4-one]", "values": [{"measurement": "IC50", "result": "< 5", "unit": "µM"}]}]}
